This note sets out measurements from ChEMBL document CHEMBL1136837, “Unified QSAR approach to antimicrobials. 4. Multi-target QSAR modeling and comparative multi-distance study of the giant components of antiviral drug-drug complex networks” (Bioorg Med Chem, 2009).

One test concerns Human alphaherpesvirus 1. In words: Antiviral activity against Herpes simplex virus 1. In kind it is functional, organism-based. The following applies: Human alphaherpesvirus 1.
The next test relates to Human alphaherpesvirus 3. The test can be described thus: Antiviral activity against Varicella zoster virus. In kind it is functional, organism-based.
The test system of the next test is Human alphaherpesvirus 2. In words: Antiviral activity against Herpes simplex virus 2. In kind it is functional, organism-based. The following applies: Human alphaherpesvirus 2.
A further test has as its system Human gammaherpesvirus 4. The test can be described thus: Antiviral activity against Epstein-Barr virus. The class given is functional, organism-based.
Test [1] deals with Human betaherpesvirus 6. The test can be described thus: Antiviral activity against Human herpesvirus 6A. In kind it is functional, organism-based.
For test [2], the system named is Human betaherpesvirus 6. The test can be described thus: Antiviral activity against Human herpesvirus 6B. The class given is functional, organism-based.
Another test relates to Picornaviridae. In words: Antiviral activity against Human picornavirus. The class given is functional, organism-based.
The test system of test [3] is Moloney murine sarcoma virus. The test can be described thus: Antiviral activity against Moloney sarcoma virus. The class given is functional, organism-based.
Test [4] relates to Human immunodeficiency virus 2. The test can be described thus: Antiviral activity against HIV2. In kind it is functional, organism-based.
Test [5] has as its system Human immunodeficiency virus 1. In words: Antiviral activity against HIV1. In kind it is functional, organism-based.
The test system of the next test is Human betaherpesvirus 5. The test can be described thus: Antiviral activity against Human cytomegalovirus. The class given is functional, organism-based. The conditions noted are these: Human betaherpesvirus 5.
The next test relates to Simplexvirus. The test can be described thus: Antiviral activity against Herpes simplex virus. In kind it is functional, organism-based.
A further test relates to Human rhinovirus sp. The test can be described thus: Antiviral activity against Human rhinovirus. In kind it is functional, organism-based.
For another test, the system named is Monkeypox virus. In words: Antiviral activity against Monkeypox virus. In kind it is functional, organism-based.
Another test deals with Vaccinia virus. The test can be described thus: Antiviral activity against Vaccinia virus. The class given is functional, organism-based, Orthopoxvirus vaccinia.
The next test relates to Human adenovirus 2. In words: Antiviral activity against Human adenovirus 2. The following applies: Human mastadenovirus C. In kind it is functional, organism-based.
In a further test the test system is Cowpox virus. In words: Antiviral activity against Cowpox virus. The class given is functional, organism-based.
In a further test the test system is Influenza B virus. In words: Antiviral activity against influenza B virus. The class given is functional, organism-based.
In the next test the test system is Influenza A virus H3N2. The test can be described thus: Antiviral activity against influenza H3N2 virus. The class given is functional, organism-based, H3N2 subtype.
For a further test, the system named is Influenza A virus. In words: Antiviral activity against influenza H1N1 virus. In kind it is functional, organism-based.
A further test relates to H2N2 subtype. In words: Antiviral activity against influenza H2N2 virus. The following applies: Influenza A virus. The class given is functional, organism-based.
Test [6] deals with unidentified influenza virus. In words: Antiviral activity against influenza virus. In kind it is functional, organism-based.
A further test deals with H5N1 subtype. The test can be described thus: Antiviral activity against influenza H5N1 virus. The class given is functional, organism-based. The following applies: Influenza A virus.

As a reminder, the pIC50 is the negative decadic logarithm of the IC50, by convention in mol/L. The low end stands for a high IC50, the high end for a low IC50.

pIC50: −log10 of the molar value.

For the compound `COc1nc(N)nc2c1ncn2/C=C1/CC1(CO)CO`, the pIC50 is 3.44 in the test with Human alphaherpesvirus 1, 5.52 in the test with Human alphaherpesvirus 3, 3.44 in the test on Human alphaherpesvirus 2 and 3.79 in the test on Human gammaherpesvirus 4.

Turning to `O[C@@H]1[C@H](O)[C@H](O)CO[C@H]1n1c(Br)nc2cc(Cl)c(Cl)cc21`, the figures for the negative logarithm of the IC50 (pIC50) in the test on Human betaherpesvirus 6 [1] and in the test on Human betaherpesvirus 6 [2] were 3.90 and 4.02, respectively.

For the compound `CNC(=O)/C=C(\c1ccc(OC)cc1)c1ccc2nc(NCC(=O)NC)c(-c3ccc(F)cc3)n2n1`, the pIC50 in the test with Picornaviridae was 6.22.

On to `Nc1nc(OCCOCP(=O)(O)O)cc(OCCOCP(=O)(O)O)n1`, for which the pIC50 in test [3] was 9.97; with Human alphaherpesvirus 1, 9.23; with Human alphaherpesvirus 3, 9.91; with Human alphaherpesvirus 2, 9.00; in [4] it was 9.70; in test [5], 9.85.

As to `Nc1nc(OCCOCP(=O)(O)O)cc(=O)n1CCOCP(=O)(O)O`, the pIC50 in test [3] is 9.58; in the test on Human alphaherpesvirus 1, 9.00; in the test on Human alphaherpesvirus 3, 9.91; in the test on Human alphaherpesvirus 2, 9.00; in test [4], 9.61; in test [5], 9.61.

With `Nc1cc(SCCOCP(=O)(O)O)nc(N)n1`, the negative logarithm of the IC50 (pIC50) in test [3] was 6.22; with Human alphaherpesvirus 1 it was 9.98; in the test on Human alphaherpesvirus 3 it was 10.27; with Human alphaherpesvirus 2 it was 9.54.

Take `CN(C)c1cc(OCCOCP(=O)(O)O)nc(N)n1`: the negative-log IC50 (pIC50) is 9.34 in test [3]; 8.86 in the test with Human alphaherpesvirus 1; 9.77 in the test on Human alphaherpesvirus 3; 8.86 in the test on Human alphaherpesvirus 2; 9.47 in test [4]; 9.47 in [5].

As to `Nc1cc(=O)n(CCOCP(=O)(O)O)cn1`, the pIC50 in test [3] is 9.26; in the test on Human alphaherpesvirus 1, 8.79; with Human alphaherpesvirus 3, 9.70; in the test with Human alphaherpesvirus 2, 8.79; in [4], 9.40; in test [5], 9.40.

For `Nc1cc(O)nc(SCCOCP(=O)(O)O)n1`, the pIC50 in test [3] was 9.59; in the test with Human alphaherpesvirus 1, 8.85; in the test with Human alphaherpesvirus 3, 9.75; with Human alphaherpesvirus 2, 8.85; in [5], 9.45.

Take `Nc1nc(NC2CC2)cc(OCCOCP(=O)(O)O)n1`: the pIC50 in test [3] is 9.88; with Human alphaherpesvirus 1 it was 9.10; with Human alphaherpesvirus 3, 9.78; with Human alphaherpesvirus 2 it was 9.58; in test [5], 9.48.

Regarding `Nc1ncnc2c1c(Br)cn2COC(CO)CO`, the pIC50 in the test with Human betaherpesvirus 5 is 5.82; in the test with Simplexvirus, 5.74.

In the case of `CCOC(=O)/C=C/[C@H](C[C@@H]1CCNC1=O)NC(=O)/C=C/c1cccc(Br)c1`, the pIC50 with Human rhinovirus sp. is 5.85.

With `Nc1ncnc2c1c(Br)cn2COCCO`, in the test on Simplexvirus, the pIC50 is 4.80.

Turning to `Nc1ccn(C[C@@H](CO)OCP(=O)(O)O)c(=O)n1` (stereo in doubt; form 1) [CIDOFOVIR], the pIC50 is 7.22 in the test with Human betaherpesvirus 5; 3.30 in the test with Monkeypox virus; 5.48 in the test on Simplexvirus; 4.64 in the test with Vaccinia virus; 5.51 with Human adenovirus 2; 4.32 in the test with Cowpox virus.

As to `NC12CC3CC(CC(C3)C1)C2` [AMANTADINE], the pIC50 in the test with Influenza B virus was 4.30; in the test on Influenza A virus H3N2 it was 6.20; with Influenza A virus, 4.30.

On to `Nc1ccn(C[C@H]2COP(=O)(O)CO2)c(=O)n1` [CYCLIC CIDOFOVIR], for which the results for the pIC50 in the test with Monkeypox virus, with Vaccinia virus (Orthopoxvirus vaccinia) and with Cowpox virus were 3.12, 4.68 and 4.29, respectively.

As to `Nc1nc2c(ncn2/C=C2/CC2(CO)CO)c(=O)[nH]1` [FILOCICLOVIR], the pIC50 in the test with Human alphaherpesvirus 1 was 3.42; in the test on Human alphaherpesvirus 3 it was 3.42; with Human alphaherpesvirus 2 it was 3.42; in the test on Human gammaherpesvirus 4 it was 4.35.

As to `O=C(O)P(=O)(O)O` [FOSCARNET], the pIC50 in the test with Human betaherpesvirus 5 was 5.15; in the test with Human adenovirus 2, 3.30.

Turning to `Nc1nc2c(ncn2COC(CO)CO)c(=O)[nH]1` [GANCICLOVIR], the results for the pIC50 in the test with Vaccinia virus (Orthopoxvirus vaccinia) and in the test on Human adenovirus 2 were 3.41 and 4.46, respectively.

Take `Nc1ccn([C@@H]2CS[C@H](CO)O2)c(=O)n1` [LAMIVUDINE]: the negative-log IC50 (pIC50) in the test on Vaccinia virus (Orthopoxvirus vaccinia) was 3.36; in the test with Human adenovirus 2, 4.00; in the test with Cowpox virus it was 3.36.

As for `CC(C)Nc1nc2cc(Cl)c(Cl)cc2n1[C@H]1O[C@@H](CO)[C@H](O)[C@@H]1O` [MARIBAVIR], the pIC50 in the test on Human betaherpesvirus 6 [1] was 3.90; with Human betaherpesvirus 6 [2], 3.97.

Regarding `Cn1cnc2c(NCc3ccccc3)nc(NCCO)nc21` [OLOMOUCINE], the pIC50 with Simplexvirus is 4.00.

Consider `CCC(CC)O[C@@H]1C=C(C(=O)O)C[C@H](N)[C@H]1NC(C)=O` [OSELTAMIVIR CARBOXYLATE], for which the pIC50 in the test with Influenza B virus was 7.82; with Influenza A virus H3N2 it was 9.22; with Influenza A virus, 8.41; with H2N2 subtype it was 9.77.

`CCC(CC)[C@H](NC(C)=O)[C@@H]1[C@H](O)[C@@H](C(=O)O)C[C@H]1NC(=N)N` [PERAMIVIR ANHYDROUS]: the pIC50 was 5.08 in test [6] and 6.70 in the test with Influenza A virus.

For `N#Cc1cn([C@@H]2O[C@H](CO)[C@@H](O)[C@H]2O)c2ncnc(N)c12` [TOYOCAMYCIN], the pIC50 in the test on Simplexvirus was 4.42.

In the test on Human adenovirus 2, `Nc1ccn([C@H]2CC[C@@H](CO)O2)c(=O)n1` [ZALCITABINE] showed a pIC50 of 5.48.

For the compound `CC(=O)N[C@H]1[C@H]([C@H](O)[C@H](O)CO)OC(C(=O)O)=C[C@@H]1NC(=N)N` [ZANAMIVIR], the values for the pIC50 in the test on H5N1 subtype, in the test on Influenza A virus H3N2 and with H2N2 subtype were 6.66, 6.17 and 6.12, respectively.
